Experimental data as given in patent publication US5834461A, “Tricyclic benzazepine vasopressin antagonists” (American Cyanamid Company, priority 1997, dated 1998).
pIC50: −log10 of the molar value.

Columns and labels:
[1] = target: T1, human V2 vasopressin receptor (Homo sapiens, UniProt P30518); assay: Binding to Membranes of Mouse Fibroblast Cell Line (LV-2) Transfected with the cDNA Expressing the Human V2 Vasopressin Receptor; details: V2 column, printed with one *, read-out: V2, % at concentration in brackets
T1 construct: expressed in transfected cells; host or cells: mouse fibroblast cell line LV-2
T1 sequence (P30518 whole entry): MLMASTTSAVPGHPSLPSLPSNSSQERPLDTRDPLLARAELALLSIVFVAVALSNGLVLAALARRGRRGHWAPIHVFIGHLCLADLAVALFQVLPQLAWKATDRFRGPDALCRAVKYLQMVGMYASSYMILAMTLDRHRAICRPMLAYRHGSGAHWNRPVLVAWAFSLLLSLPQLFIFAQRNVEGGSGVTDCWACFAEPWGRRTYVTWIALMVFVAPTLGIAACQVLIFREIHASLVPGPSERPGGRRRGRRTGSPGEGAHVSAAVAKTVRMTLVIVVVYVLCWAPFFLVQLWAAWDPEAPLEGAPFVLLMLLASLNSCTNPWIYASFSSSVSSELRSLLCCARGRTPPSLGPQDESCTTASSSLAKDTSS

[2] = target: T2, vasopressin V1 receptor subtype in human platelet membranes (Homo sapiens, UniProt P37288); assay: Binding to Vasopressin V1 Receptor Subtype in Human Platelet Membranes; details: for pIC50: human platelet V1 (*)
T2 construct: tissue Hudson Valley Blood Services; host or cells: human blood platelets (frozen platelet rich plasma)
T2 sequence (P37288 whole entry): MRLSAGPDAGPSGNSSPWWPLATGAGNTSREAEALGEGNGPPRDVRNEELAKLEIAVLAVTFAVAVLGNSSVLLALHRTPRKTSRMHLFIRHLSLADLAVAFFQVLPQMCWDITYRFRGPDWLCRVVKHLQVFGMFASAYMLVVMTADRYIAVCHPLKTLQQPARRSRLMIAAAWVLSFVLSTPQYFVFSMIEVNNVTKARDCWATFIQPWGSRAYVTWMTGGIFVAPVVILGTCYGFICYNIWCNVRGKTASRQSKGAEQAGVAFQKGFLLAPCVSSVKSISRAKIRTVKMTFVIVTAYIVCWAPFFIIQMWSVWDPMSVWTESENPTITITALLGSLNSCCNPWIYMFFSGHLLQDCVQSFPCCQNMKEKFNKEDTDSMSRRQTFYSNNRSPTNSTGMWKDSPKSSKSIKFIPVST
Procedure: (a) Platelet Membrane Preparation:
Frozen platelet rich plasma (PRP), received from the Hudson Valley Blood Services, are thawed to room temperature. (Platelet Source: Hudson Valley Blood Services, Westchester Medical Center, Valhalla, N.Y.). The tubes containing the PRP are centrifuged at 16,000×g for 10 min. at 4° C. and the supernatant fluid discarded. The platelets resuspended in an equal volume of 50.0 mM Tris.HCl, pH 7.5 containing 120 mM NaCl and 20.0 mM EDTA. The suspension is recentrifuged at 16,000×g for 10 min. This washing step is repeated one more time. The wash discarded and the lysed pellets homogenized in low ionic strength buffer of Tris.HCl, 5.0 mM, pH 7.5 containing 5.0 mM EDTA. The homogenate is centrifuged at 39,000×g for 10 min. The resulting pellet is resuspended in Tris.HCl buffer, 70.0 mM, pH 7.5 and recentrifuged at 39,000×g for 10 min. The final pellet is resuspended in 50.0 mM Tris.HCl buffer pH 7.4 containing 120 mM NaCl and 5.0 mM KCl to give 1.0-2.0 mg protein per ml of suspension.
(b) Binding to Vasopressin V1 Receptor Subtype in Human Platelet Membranes:
In wells of a 96 well format microtiter plate, add 100 μl of 50.0 mM Tris.HCl buffer containing 0.2% BSA and a mixture of protease inhibitors (aprotinin, leupeptin etc.). Then add 20 μl of [^3 H]Ligand (Manning or Arg^8 Vasopressin), to give final concentrations ranging from 0.01 to 10.0 nM. Initiate the binding by adding 80.0 μl of platelet suspension (approx. 100 μg protein). Mix all reagents by pipetting the mixture up and down a few times. Non specific binding is measured in the presence of 1.0 μM of unlabeled ligand (Manning or Arg^8 Vasopressin). Let the mixture stand undisturbed at room temperature for ninety (90) min. Upon this time, rapidly filter off the incubate under vacuum suction over GF/B filters, using a Brandel Harvester. The radioactivity caught on the filter disks is determined by the addition of liquid scintillant and counting in a liquid scintillator.

vasopressin V2 = assay: Vasopressin V2 Antagonist Activity in Conscious Hydrated Rats (diuretic effect); type: in vivo, normal Sprague-Dawley rats; details: 10 mg/kg orally, AVP 0.4 μg/kg i.p.
In short: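 Conscious rats were dosed orally at 0.1–100 mg/kg, and AVP 0.4 μg/kg i.p. in peanut oil followed 1 h later. Urine volume, osmolality and Na/K/Cl were compared against AVP-treated controls, with non-AVP rats as water-loading controls.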

[3] = target: T1, human V2 vasopressin receptor; assay: Binding to Membranes of Mouse Fibroblast Cell Line (LV-2) Transfected with the cDNA Expressing the Human V2 Vasopressin Receptor; details: for pIC50: LV-2 cells
Procedure: Flasks of 175 ml capacity, containing attached cells grown to confluence, are cleared of culture medium by aspiration. The flasks containing the attached cells are rinsed with 2×5 ml of phosphate buffered saline (PBS) and the liquid aspirated off each time. Finally, 5 ml of an enzyme free dissociation Hank's based solution (Specialty Media, Inc., Lafayette, N.J.) is added and the flasks are left undisturbed for 2 min. The content of all flasks is poured into a centrifuge tube and the cells pelleted at 300×g for 15 min. The Hank's based solution is aspirated off and the cells homogenized with a polytron at setting #6 for 10 sec in 10.0 mM Tris.HCl buffer, pH 7.4 containing 0.25M sucrose and 1.0 mM EDTA. The homogenate is centrifuged at 1500×g for 10 min to remove ghost membranes. The supernatant fluid is centrifuged at 100,000×g for 60 min to pellet the receptor protein. Upon completion, the pellet is resuspended in a small volume of 50.0 mM Tris.HCl buffer, pH 7.4. The protein content is determined by the Lowry method and the receptor membranes are suspended in 50.0 mM Tris.HCl buffer containing 0.1 mM phenylmethylsulfonylfluoride (PMSF) and 0.2% bovine serum albumin (BSA) to give 2.5 mg receptor protein per ml of suspension.
For binding experiments, the following is added in μl volume to wells of a 96 well format of a microtiter plate: 100.0 μl of 100.0 mM Tris.HCl buffer containing 0.2% heat inactivated BSA, 10.0 mM MgCl2 and a mixture of protease inhibitors: leupeptin, 1.0 mg %; aprotinin, 1.0 mg %; 1,10-phenanthroline, 2.0 mg %; trypsin inhibitor, 10.0 mg % and 0.1 mM PMSF., 20.0 μl of [^3 H] Arginine^8, vasopressin (S.A. 75.0 Ci/mmole) at 0.8 nM and the reaction initiated by the addition of 80.0 μl of tissue membranes ([…]).
The plates are left undisturbed on the bench top for 120 min to reach equilibrium. Non specific binding is assessed in the presence of 1.0 μM of unlabeled ligand, added in 20 μl volume. For test compounds, these are solubilized in 50% dimethylsulfoxide (DMSO) and added in 20.0 μl volume to a final incubation volume of 200 μl. Upon completion of binding, the content of each well is filtered off, using a Brandel® cell Harvester (Gaithersburg, Md.). The radioactivity trapped on the filter disk by the ligand-receptor complex is assessed by liquid scintillation counting in a Packard LS Counter, with an efficiency of 65% for tritium.

vasopressin V1 = assay: Vasopressin V1 Antagonist Activity in Conscious Rats (vasopressin vasopressor response); type: in vivo, rat (spontaneously hypertensive rats); details: 10 mg/kg i.v.
In short: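 Conscious rats had the ventral caudal tail artery cannulated into the lower abdominal aorta under local procaine anesthesia, plus a caudal vein cannula for intravenous dosing. Pulsatile blood pressure was recorded via a Statham P23Db transducer. Vasopressor responses to vasopressin injections were measured before and after compound dosing, with percent antagonism calculated relative to the pre-drug response taken as 100%.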

| inhibition at 10 µM [1] [%] | inhibition at 10 µM ([2]; 1.5 h, 10 μM, human platelet (*), read-out: *V1, % at concentration in brackets) [%] | pIC50 [2] | pIC50 [3] | inhibition at 1 µM ([2]; 1.5 h, 1 μM, human platelet (*), read-out: *V1, % at concentration in brackets) [%] | inhibition at 1 µM ([3]; 1 μM, read-out: **V2, % at concentration in brackets) [%] | SMILES | Osmolality (vasopressin V2) [mOsm/kg] | Urine Volume (vasopressin V2) [ml/4 hrs.] | MAX % Inhibition (vasopressin V1) [%] | Time of max % inhibition (vasopressin V1) [min] |
| --- | --- | --- | --- | --- | --- | --- | --- | --- | --- | --- |
| 92 | 95 |  |  |  |  | Cc1ccccc1NC(=O)Nc1ccc(C(=O)N2Cc3ccccc3Cc3ccccc32)cc1 [Example 122, 6,11-Dihydro-5-[4-[[[(2-methylphenyl)amino]carbonyl]-amino]benzoyl]-5H-dibenz[b,e]azepine] |  |  |  |  |
|  |  | 6.01 | 7.55 |  |  | Cc1c(F)cccc1C(=O)Nc1ccc(C(=O)N2Cc3ccccc3Cc3ccccc32)c(Cl)c1 [Example 264, N-[4-[(6,11-Dihydro-5H-dibenz[b,e]azepin-5-yl)-carbonyl]-3-chlorophenyl]-2-methyl-3-fluorobenzamide] | 682 | 12 |  |  |
|  |  |  |  | 35 | 69 | O=C(O)Cn1cc2c(n1)-c1ccccc1N(C(=O)c1ccc(NC(=O)c3ccc(Cl)cc3Cl)cc1)CC2 [Example 451, 6-[4-[(2,4-Dichlorobenzoyl)amino]benzoyl]-5,6-dihydropyrazolo[4,3-d][1]benzazepine-2(4H)-acetic acid] | 989 | 5.3 |  |  |
|  |  | 6.33 | 8.00 |  |  | CCOC(=O)Cn1cc2c(n1)-c1ccccc1N(C(=O)c1ccc(NC(=O)c3ccc(Cl)cc3Cl)cc1)CC2 [Example 452, Ethyl 6-[4-[(2,4-dichlorobenzoyl)amino]benzoyl]-5,6-dihydropyrazolo[4,3-d][1]benzazepine-2(4H)-acetate] | 584 | 7.8 |  |  |
|  |  | 7.44 | 8.05 |  |  | Cc1ccccc1C(=O)Nc1ccc(C(=O)N2Cc3ccsc3Cc3ccccc32)cc1 [Example 456, N-[4-[(4,10-Dihydro-5H-thieno[3,2-c][1]benzazepin-5-yl)carbonyl]phenyl]-2-methylbenzamide] | 1209 | 4.8 |  |  |
|  |  | 8.74 | 9.15 |  |  | Cc1ccccc1C(=O)Nc1ccc(C(=O)N2Cc3sccc3Cc3ccccc32)cc1 [Example 458] | 537 | 13.5 | 77 | 180 |
